From US4789542A, “Radioiodinated glucose analogues for use as imaging agents” (The United States of America as represented by the United …, priority 1986, dated 1988)
Where two headings read alike, the source gives them in different places.

Test: Distribution of radioactivity in tissues of female rats after intravenous administration
Assay type: in vivo
Details: rat; for Brain/Blood ratio / Distribution of radioactivity, Brain / Heart/Blood ratio / tissue uptake at 5 min / tissue uptake at 0.25 h / tissue uptake at 0.5 h / tissue uptake at 1 h: mean; for tissue uptake at 5 min / tissue uptake at 0.25 h / tissue uptake at 0.5 h / tissue uptake at 1 h: iv
Experimental: A test radiopharmaceutical methyl-2-deoxy-2-(E)-[^125 I]-iodovinyl-2,4,6-0-triacetyl-β-D-altropyranoside 6 was prepared to establish that a deoxy substituted iodovinyl carbohydrate could be delivered to the brain in significant levels with prolonged retention. One novel aspect of the invention was the scission of an anhydro sugar with the Grignard reagent. This technique was chosen because a variety of 2-deoxy iodovinyl carbohydrates could be prepared depending on the position of the anhydro group within the pyranose ring. The process of the synthesis is shown in the drawing.
The distribution of radioactivity in tissues of female rats at 5 minutes, 15 minutes, 30 minutes and 60 minutes after intravenous administration of the iodinated compound is shown in the following table. The level of accumulation of radioactivity in the brain after injection of this agent was a significant 1.65 percent dose/g at 5 minutes but the blood levels were also high resulting in blood ratios of 1.6/1 at 5 minutes.

In the case of CO[C@@H]1O[C@H](COC(C)=O)[C@@H](OC(C)=O)[C@@H](OC(C)=O)[C@@H]1/C=C/[125I] [methyl-2-deoxy-2-(E)-[^125 I]-iodovinyl-2,4,6-0-triacetyl-β-D-altropyranoside], the Brain/Blood ratio (5 min) is reported as 1.5666, the “Distribution of radioactivity, Brain” value (5 min) is reported as 1.6525 percent dose/g and the Heart/Blood ratio (5 min) is reported as 1.0776. It also gave a Brain/Blood ratio (15 min) of 1.2775, a Heart/Blood ratio (15 min) of 1.1490 and a Brain/Blood ratio (30 min) of 1.1035. The Heart/Blood ratio (30 min) was 1.0809, the Brain/Blood ratio (60 min (1 hr)) was 1.1087 and the Heart/Blood ratio (60 min (1 hr)) was 1.0408. The “Distribution of radioactivity, Brain” value (60 min (1 hr), 60 min) was 0.7237 percent dose/g, the “Brain retention at 60 minutes compared with the peak uptake at 5 minutes” value (60 min vs 5 min) was 50% and the tissue uptake at 5 min (blood, 5 min, read-out: Distribution of radioactivity, Blood) was 1.05 %ID/g. The tissue uptake at 0.25 h (blood, 15 min, read-out: Distribution of radioactivity, Blood) was 0.933 %ID/g, the tissue uptake at 0.5 h (blood, 30 min, read-out: Distribution of radioactivity, Blood) was 0.0037 %ID/g and the tissue uptake at 1 h (blood, 60 min (1 hr), read-out: Distribution of radioactivity, Blood) was 0.653 %ID/g. The tissue uptake at 5 min (brain, 5 min, read-out: Distribution of radioactivity, Brain) was 1.65 %ID/g, the tissue uptake at 0.25 h (brain, 15 min, read-out: Distribution of radioactivity, Brain) was 1.19 %ID/g and the tissue uptake at 0.5 h (brain, 30 min, read-out: Distribution of radioactivity, Brain) was 0.891 %ID/g. For the same molecule, the tissue uptake at 1 h (brain, 60 min (1 hr), read-out: Distribution of radioactivity, Brain) was 0.72 %ID/g, the tissue uptake at 5 min (kidney, 5 min, read-out: Distribution of radioactivity, Kidney) was 1.55 %ID/g and the tissue uptake at 0.25 h (kidney, 15 min, read-out: Distribution of radioactivity, Kidney) was 1.57 %ID/g. The tissue uptake at 0.5 h (kidney, 30 min, read-out: Distribution of radioactivity, Kidney) was 1.7 %ID/g, the tissue uptake at 1 h (kidney, 60 min (1 hr), read-out: Distribution of radioactivity, Kidney) was 1.57 %ID/g and the tissue uptake at 5 min (liver, 5 min, read-out: Distribution of radioactivity, Liver) was 1.39 %ID/g. The tissue uptake at 0.25 h (liver, 15 min, read-out: Distribution of radioactivity, Liver) was 1.37 %ID/g, the tissue uptake at 0.5 h (liver, 30 min, read-out: Distribution of radioactivity, Liver) was 1.23 %ID/g and the tissue uptake at 1 h (liver, 60 min (1 hr), read-out: Distribution of radioactivity, Liver) was 1.05 %ID/g. It also gave a tissue uptake at 5 min (lung, 5 min, read-out: Distribution of radioactivity, Lung) of 1.19 %ID/g, a tissue uptake at 0.25 h (lung, 15 min, read-out: Distribution of radioactivity, Lung) of 1.03 %ID/g and a tissue uptake at 0.5 h (lung, 30 min, read-out: Distribution of radioactivity, Lung) of 0.833 %ID/g. It also gave a tissue uptake at 1 h (lung, 60 min (1 hr), read-out: Distribution of radioactivity, Lung) of 0.663 %ID/g, a tissue uptake at 5 min (thyroid, 5 min, read-out: Distribution of radioactivity, Thyroid) of 20.6 %ID/g and a tissue uptake at 0.25 h (thyroid, 15 min, read-out: Distribution of radioactivity, Thyroid) of 18.9 %ID/g. The tissue uptake at 0.5 h (thyroid, 30 min, read-out: Distribution of radioactivity, Thyroid) was 25.7 %ID/g, the tissue uptake at 1 h (thyroid, 60 min (1 hr), read-out: Distribution of radioactivity, Thyroid) was 33.5 %ID/g and the “Retention in the brain” value (up to 60 min) was “prolonged retention in the brain”. The “Stability to in vivo deiodination (from low thyroid accumulation)” value (up to 60 min) was “demonstrated the stability of this agent to in vivo deiodination”.
